According to patent US20080287478A1 (priority 2003, published 2008):
Structures can show the parent of a compound that is named as a salt. Where two headings read alike, the source gives them in different places.

Key:
Male SD/TAC rats = experiment: animal or person; assay type: in vivo, rat; conditions: for response vs control in vivo at 3 µmol/kg / minimal effective dose / ED (max): Rattus norvegicus; for minimal effective dose: read-out: Lovest Dose at which increased diuresis is achieved nMol/kg. I.e. >1.5 SC; for ED (max): read-out: SC Dose at which max diuresis is achieved nMol/kg
mice = conditions: mouse, in vivo, iv
male NMRI mice = conditions: mouse, in vivo, iv; for dose at which the mice died after injection / time to death after injection: male, NMRI
in vivo = conditions: male, Sprague-Dawley, rat
[1] = rat, in vivo

Row | Molecule | response vs control in vivo at 3 µmol/kg (Male SD/TAC rats; po, read-out: PO max effect.) [%] | Lovest Dose at which increased diuresis is achieved nMol/kg. I.e. >1.5 IV (Male SD/TAC rats; rat, in vivo) | Lovest Dose at which increased diuresis is achieved nMol/kg. I.e. >1.5 PO (Male SD/TAC rats; rat, in vivo, po) [nmol/kg] | PO Dose at which max diuresis is achieved (Male SD/TAC rats; rat, in vivo, po) [nmol/kg] | CNS motility* (Minimal effective dose nmol/kg) (mice) [nmol/kg] | dose at which the mice died after injection (male NMRI mice) [nmol/kg] | time to death after injection (male NMRI mice) | CNS grid shock* (Minimal effective dose nmol/kg) (male NMRI mice) [nmol/kg] | half-life (in vivo) [h] | Lovest Dose at which increased diuresis is achieved nMol/kg. I.e. >1.5 SC (Male SD/TAC rats; rat, in vivo, sc) [nmol/kg] | SC Dose at which max diuresis is achieved (Male SD/TAC rats; rat, in vivo, sc) [nmol/kg] | SC max effect. (Male SD/TAC rats; rat, in vivo, sc) | locomotor activity / activity count during the first 30 minutes versus vehicle (mice) | oral availability (in words) [1] | gridshock response versus vehicle (male NMRI mice) | minimal effective dose (Male SD/TAC rats; sc) [µmol/kg] | ED (max) (Male SD/TAC rats; sc) [nmol/kg] | response vs control in vivo at 3 µmol/kg (Male SD/TAC rats; sc, read-out: SC max effect.) [%] | PO Dose at which max diuresis is achieved nMol/kg (Male SD/TAC rats; rat, in vivo, po) | dose with statistical significant decrease in locomotor activity during the first 15 minutes (mice) [nmol/kg]
1 | CC(C)[C@H]1CC[C@@H](N2CCC3(CC2)C(=O)N(CCCN2CCCNCCNCCCNCC2)CN3c2ccccc2)CC1 [Compound 36, cis-8-(4-Isopropyl-cyclohexyl)-1-phenyl-3-[3-(1,4,8,11-tetraaza-cyclotetradec-1-yl)-propyl]-1,3,8-triaza-spiro[4.5]decan-4-one] | 240 | 10 nmol/kg | 1000 | 1000 | 100 | 2000 | approximately 1 | 1000 | 2 | – | – | – | – | – | – | – | – | – | – | –
2 | cis-(8-(4-Isopropyl-cyclohexyl)-1-phenyl-1,3,8-triaza-spiro[4.5]decan-4-one)-acetic acid [Compound 11] | – | 10 nmol/kg | – | – | >10000 | – | – | – | – | 1000 | 1000 | 2.0 | No statistical significant difference | orally available | No statistical significant difference | – | – | – | – | –
3 | O=C(O)C(F)(F)F [TFA, Trifluoroacetic acid] | – | – | – | – | – | – | – | – | – | – | – | – | No statistical significant difference | – | No statistical significant difference | – | – | – | – | –
4 | CC(C)[C@H]1CC[C@@H](N2CCC3(CC2)C(=O)N(CCCNCCNCCNCCCNCCN)CN3c2ccccc2)CC1 [Compound 33, cis-8-(4-Isopropyl-cyclohexyl)-3-(4,7,10,14,17-pentaazaheptadecyl)-1-phenyl-1,3,8-triaza-spiro[4.5]decan-4-one] | 160 | – | 1000 | 1000 | – | – | – | – | – | – | – | – | – | – | – | 0.0001 | 1000 | 330 | – | –
5 | cis and trans-3-(Methoxycarbonylmethyl-)-8-(4-isopropyl-cyclohexyl)-1-phenyl-1,3,8-triaza-spiro[4.5]decan-4-one [Compound 10] | – | – | – | – | – | – | – | – | – | 1000 | 1000 | 1.9 | – | – | – | – | – | – | – | –
6 | CC(C)[C@H]1CC[C@@H](N2CCC3(CC2)C(=O)N(CCCCCCNCCNCCCNCCNCCN)CN3c2ccccc2)CC1 [Compound 34, cis-8-(4-Isopropyl-cyclohexyl)-3-(7,10,14,17,20-pentaazaeicosanyl)-1-phenyl-1,3,8-triaza-spiro[4.5]decan-4-one] | 200 | 0.0001 nmol/kg | 0.1 | – | 100 | 2000 | approximately 2 minutes | 300 | – | – | – | – | No statistical significant difference | – | No statistical significant difference | 0.01 | 100 | 490 | 0.1; 10 nMol/kg | 1000
7 | CC(C)[C@H]1CC[C@@H](N2CCC3(CC2)C(=O)N(CCCCCCCCCN2CN(c4ccccc4)C4(CCN([C@H]5CC[C@@H](C(C)C)CC5)CC4)C2=O)CN3c2ccccc2)CC1 [Compound 25, 1,9-bis-(cis-8-(4-isopropyl-cyclohexyl)-1-phenyl-1,3,8-triaza-spiro[4.5]decan-4-one-3-yl)-nonane] | 250 | 10^−5 nMol/kg | 10 | 1000 | – | – | – | – | – | – | – | – | – | – | – | 0.01 | 1000 | 250 | – | –
